In PubChem BioAssay (NCI):
“And” between values parts separate entries of the source, which are not always exact repeats. Identical values can stand only once.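 Values below derive from 48-hour exposures of cells grown in 96-well plates, with endpoints linearly interpolated between the two concentrations bracketing the appropriate inhibition level. GI50 = concentration required for 50% inhibition of growth. TGI marks complete inhibition of growth.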

What was measured:
Experiment in all cases: NCI-60 cell line screen, 48 h
[1] = system: SN12C renal
[2] = system: OVCAR-3 ovarian
[3] = system: 786-0 renal
[4] = system: OVCAR-5 ovarian
[5] = system: K-562 leukemia
[6] = system: SK-MEL-28 melanoma
[7] = system: NCI-H23 lung
[8] = system: DU-145 prostate
[9] = system: SNB-75 CNS
[10] = system: A498 renal
[11] = system: UACC-257 melanoma
[12] = system: BT-549 breast
[13] = system: UO-31 renal
[14] = system: CCRF-CEM leukemia
[15] = system: EKVX NSCLC
[16] = system: HS 578T breast
[17] = system: SF-295 CNS
[18] = system: MCF7 breast

Compound	TGI [1]	TGI [2] [µM]	TGI [3]	TGI [4] [µM]	TGI [5]	TGI [6] [µM]	TGI [7] [µM]	TGI [8] [µM]	TGI [9] [µM]	TGI [10] [µM]	TGI [11]	TGI [12] [µM]	TGI [13]	TGI [14]	TGI [15] [µM]	TGI [16] [µM]	TGI [17]	TGI [18] [µM]	GI50 [1] [µM]	GI50 [13] [µM]
O=C(N=Nc1ccc(Cl)cc1Cl)NNc1ccc(Cl)cc1Cl	37.4 µM	33.6	32.6 µM	44	72.6 µM	53.9	53	33.3	> 100	33.1	43.1 µM	39.7	37.5 µM	59.6 µM						
CC1(C)OC(=S)N(c2ccccc2)C12C=Cc1cc3ccccc3nc1S2 (stereo not given)	> 100 µM	> 100	> 100 µM	> 100	> 100 µM	> 100	> 100		> 100		> 100 µM		> 100 µM	> 100 µM	> 100					
O=C(c1cccs1)c1nccc2c1cnc1ccccc12	> 100 µM	> 100	> 100 µM	> 100	> 100 µM	> 100	> 100	> 100	> 100	> 100	> 100 µM		> 100 µM	> 100 µM	> 100	> 100	> 100 µM	72.5		
O=c1cc(-c2ccccc2)[nH]c2cc(F)cc(F)c12	> 100 µM		> 100 µM	> 100	> 100 µM	> 100	> 100		46.9		> 100 µM		> 100 µM	> 100 µM			> 100 µM			
COC(=O)C1Cc2c(OC)ccc(OC)c2C(O)C1C(=O)OC (stereo not given)	> 100 µM	> 100	> 100 µM	> 100	> 100 µM	> 100	> 100	> 100	> 100		> 100 µM		> 100 µM	> 100 µM	> 100	> 100	> 100 µM	> 100		
C1CCCCC2(CCCCCCCCC3(CCC1)SCCS3)SCCS2	> 100 µM	> 100	> 100 µM	> 100	> 100 µM	> 100	> 100	> 100	> 100	> 100	> 100 µM				> 100	> 100	> 100 µM	> 100		
Cn1c(=Nc2ccc(Cl)cc2)sc2ccccc21	> 100 µM		> 100 µM	> 100	> 100 µM	> 100	> 100	> 100	> 100	> 100	> 100 µM		> 100 µM	> 100 µM	> 100	> 100	> 100 µM			
CC(=O)C(C(=O)c1ccc(C)cc1)[C@H]1OC(C)(C)O[C@H]1[C@H]1COC(C)(C)O1 (stereo not given in full)	6.39 µM		8.75 µM	18.3	> 50 µM	15.8	10		10.8	14.7	11.9 µM	> 50	14 µM		11.7	> 50	16.9 µM	8.68		
CO/N=C\c1ccc2c(c1)Sc1ccccc1O2	> 100 µM	> 100	> 100 µM	> 100	> 100 µM	> 100	> 100	> 100	> 100	> 100	> 100 µM		> 100 µM		> 100	97.3	> 100 µM	> 100		
CC(C)(C)C(=O)Oc1ccc(/C=C/C(=O)c2ccc(OC(=O)C(C)(C)C)cc2)cc1	> 100 µM	72	> 100 µM	> 100	86.7 µM	> 100	> 100	> 100	> 100	> 100	> 100 µM			20.2 µM	> 100	86.9	> 100 µM	> 100		
CC1(C)OCC(C2OC3OC(C)(C)OC3C2c2ccccc2)O1 (stereo not given)	> 100 µM	91.7	> 100 µM	> 100	> 100 µM	> 100	97.2	> 100	> 100		> 100 µM		> 100 µM	> 100 µM	> 100	64.4	> 100 µM	> 100		
COc1cc(C(=O)Oc2c(C(C)=O)sc3c2c(=O)n(-c2ccccc2)c(=S)n3-c2ccccc2)cc(OC)c1OC	27.4 µM	62.2	55.2 µM	43.2	> 100 µM	49.5	39.9	50.6	50.1	28.3	68.3 µM			45.8 µM	40.8	74.4	40.6 µM	44.8		
COc1cc(/C=N/N=C(\N)NO)cc(OC)c1OC	> 100 µM	> 100	39.2 µM	> 100	49.2 µM	> 100	> 100	> 100		> 100	> 100 µM		> 100 µM	> 100 µM	> 100	> 100	53.2 µM	85.9		
COc1cc(C(=O)N[C@H]2CCc3cc(OC)c(OC)c(OC)c3-c3ccc(SC)c(=O)cc32)cc(OC)c1OC	25 µM and 41.2 µM		25 µM and 16.3 µM	25	25 µM and > 100 µM	> 100			48.6		19.1 µM and > 100 µM		25 µM and 22.2 µM	25 µM and > 100 µM	25		0.0684 µM and 0.0328 µM		0.0145	0.266
COc1ccc(/C=C2/C(=O)N(C(=O)c3ccccc3O)N=C2C)cc1	> 32 µM	> 30.4	> 100 µM	> 100	> 100 µM	> 100		> 100		0.0747	> 100 µM	98.1		> 100 µM	> 100		> 100 µM	> 100		
CCOC(=O)C(=CNc1ccc(N(C2=NCC(C)S2)c2ccc(F)c(Cl)c2)cc1)C(=O)OCC (stereo not given)	36.2 µM	51.8	33.2 µM	39	> 100 µM	42.5	33.9	43.9	43.7	41.1	34 µM		38.6 µM	30.1 µM	43.3	55.3	64.2 µM	53.9		
Cc1ccc(S(=O)C[C@](NC(=O)OCc2ccccc2)(Sc2ccccc2)C(F)F)cc1 (stereo not given in full)		66.1	29.2 µM	63.9	> 100 µM	38.1	36.4	45.6	28.3	29.7	31.5 µM	50.9	22.3 µM	5.56 µM	29.3	94.3	34.4 µM			
Cc1cccc2oc3c(c(=O)c12)CC(O)C(C)(C)O3 (stereo not given)	> 100 µM	> 100	> 100 µM	> 100	> 100 µM	> 100	> 100	> 100		> 100	> 100 µM		> 100 µM	> 100 µM	> 100	> 100	> 100 µM	> 100		
COC(=O)CCC1(CCC(=O)OC)CCCCCCC(CCC(=O)OC)(CCC(=O)OC)C(=O)C1=O	> 100 µM	> 100	> 100 µM	> 100	> 100 µM	> 100	> 100	> 100	> 100	> 100	> 100 µM		76.7 µM		> 100	> 100	> 100 µM	> 100		
COc1ccc(-c2c(-c3ccc(OC)cc3)n3c(=O)n(C)c(=O)n23)cc1	> 100 µM	51.6	> 100 µM		> 100 µM	> 100	> 100	65.2	> 100	95.3	> 100 µM		> 100 µM	> 100 µM	> 100		> 100 µM	> 100		
c1ccc2cc3c(NC4=NCCO4)cccc3cc2c1	> 100 µM	> 100	> 100 µM	> 100	> 100 µM	> 100	> 100	> 100	> 100	> 100	> 100 µM		> 100 µM	81.6 µM	> 100	> 100	> 100 µM	> 100		
CCOP(=O)(OCC)/C(C#N)=C/c1ccccn1	> 100 µM	> 100	> 100 µM	> 100	> 100 µM	> 100	> 100	> 100	> 100	> 100	> 100 µM			> 100 µM	> 100	> 100	> 100 µM	> 100		
O=c1[nH]ncc2[nH]c3c4ccccc4ccc3c12		> 100	> 100 µM	> 100	> 100 µM			> 100				> 100	> 100 µM	> 100 µM	> 100		84.1 µM	54.9		
CCCCc1ccc(-n2sc3ncc(-c4ccccc4)cc3c2=O)cc1	> 100 µM	> 100	> 100 µM	> 100	> 100 µM	> 100	> 100	> 100	> 100	> 100		> 100	> 100 µM	> 100 µM	> 100		> 100 µM	> 100		
CC(C)(C)OC(=O)N1NC(c2ccccc2)CC1c1ccccc1 (stereo not given)	> 100 µM	> 100	> 100 µM	> 100	> 100 µM		40.4	> 100	76.7	74.4	> 100 µM		53.2 µM	71.5 µM	> 100	> 100	> 100 µM	61		
O=C(O)c1nc2ccc(C(F)(F)F)cc2nc1Nc1ccc(Cl)c(Cl)c1	22.1 µM	23.9	23.7 µM	28.9	16.3 µM	26.6	19		29	27.4	56.4 µM	14.7	18.2 µM		22.8	41.6	17 µM	66.7		
O=C(c1ccccc1)N1C(=O)N(c2ccccc2)C(=Nc2ccccc2)C1=Nc1ccccc1	> 100 µM		> 100 µM	> 100	> 100 µM	> 100	> 100	> 100	> 100	> 100	> 100 µM		> 100 µM	> 100 µM	> 100	> 100	> 100 µM			
N#Cc1c(=O)c2ccccc2n2ccccc12	> 100 µM		> 100 µM		> 100 µM	> 100	> 100	> 100	> 100	> 100	> 100 µM		> 100 µM	> 100 µM		> 100				
CC[C@@H](CCCCC1CC[C@H]2CC(=O)C[C@@H]12)OC (stereo not given in full)	> 100 µM	> 100	> 100 µM	> 100	80.1 µM	> 100	> 100	> 100	> 100	> 100	> 100 µM			> 100 µM	> 100	> 100	> 100 µM	> 100		
COc1cccc(-c2cc(=O)c3cc4c(cc3[nH]2)OCO4)c1	> 100 µM	0.452	10.2 µM	3.02	> 100 µM	> 100			0.245	1.45	> 100 µM		> 100 µM	> 100 µM	> 100		0.828 µM			
